Measurements from paper PMC7359024, “Synthesis, Structure–Activity Relationship, and Mechanistic Studies of Aminoquinazolinones Displaying Antimycobacterial Activity” (ACS Infectious Diseases, 2020).
Converted amounts (≈) assume the structure as drawn. Read-outs that look alike come from different tables or passages of the source.

Experiments:
[1] = type: in vitro ADME; conditions: for Metabolic Stability H (% Rem.): human liver microsomes; for Metabolic Stability M (% Rem.): mouse liver microsomes; for Metabolic Stability R (% Rem.): rat liver microsomes
Method: 3.2. Microsomal stability
The metabolic stability assay was performed in duplicate in a 96-well micro titre plate. The test compounds (0.1 μM) were incubated individually in mouse, rat and pooled human liver microsomes ((final protein concentration of 0.4 mg/mL; XenoTech, Lenexa, KS ), suspended in 0.1M phosphate buffer (pH 7.4) at 37 °C for predetermined time points, in the presence and absence of the cofactor NADPH (1 mM). Reactions were quenched by adding ice cold acetonitrile containing internal standard (carbamazepine, 0.0236 µg/mL). T he samples were centrifuged and test compound in the supernatant were analysed by means of LC -MS/MS (Agilent Rapid Resolution HPLC, AB SCIEX 4500 MS ). The relative loss of parent compound over time was monitored and plots (concentration vs. time) were prepared per compound to determine the first order rate constant for compound depletion. This was in turn used to calculate half-life, in vitro intrinsic clearance and in vivo hepatic extraction ratio. Metabolite searches were not conducted during the metabolic stability assay. 5

Mtb H37Rv strain = assay: MIC90 determination in GASTE-Fe media (broth microdilution); type: cell-based, Mycobacterium tuberculosis; conditions: Mtb H37Rv, replicating conditions, GASTE-Fe media, read 14 days after incubation, read-out: MIC90 GASTE-Fe
physchem = type: physicochemical; conditions: for solubility: kinetic solubility, pH 7.4, HPLC method
Method: The kinetic solubility assay was performed using a miniaturised shake flask method. 10 mM stock solutions of each of the test compounds were used to prepare calibration standards (10-220μM) in DMSO. The same 10mM stock solutions were accurately dispensed in duplicate into 96-well plates and the DMSO dried down (MiVac GeneVac, 90 min, 37 °C). Thereafter, the samples were reconstituted (200 µM) in phosphate buffered saline (pH 7.4) and shaken (20 hours, 25 °C). The solutions were filtered and analysed by means of HPLC -DAD (Agilent 1200 Rapid Resolution HPLC with a diode array detector). […]

in vitro = conditions: Chinese hamster
[2] = Mycobacterium tuberculosis, H37RV, 336 h

SMILES: NC(=O)c1cccc(-c2ccc3nc(N)n(-c4ccc(C(F)(F)F)cc4)c(=O)c3c2)c1 [compound 9]
- Metabolic Stability H (% Rem.) [1]: 97/-/- % Rem.
- MIC90 (Mtb H37Rv strain; [2]): < 0.244 µM
- solubility (physchem; 25 °C, pH 7.4, aqueous buffer): < 5 µM
- IC50 (in vitro): > 100 µM

SMILES: Nc1nc2ccc(-c3cccc(C(=O)NCCO)c3)cc2c(=O)n1-c1ccc(C(F)(F)F)cc1 [compound 14]
- Metabolic Stability H (% Rem.) [1]: 81 % Rem.
- Metabolic Stability M (% Rem.) [1]: 90 % Rem.
- Metabolic Stability R (% Rem.) [1]: 83 % Rem.
- MIC90 (Mtb H37Rv strain; [2]): 1.03 µM (≈ 0.482 µg/mL)
- solubility (physchem; 25 °C, pH 7.4, aqueous buffer): 192 µM (≈ 89.9 µg/mL)
- solubility (physchem): 193 µM (≈ 90.4 µg/mL)
- IC50 (in vitro): > 50 µM

SMILES: Cc1cncc(-c2ccc3nc(N)n(-c4ccc(C(F)(F)F)cc4)c(=O)c3c2)c1 [compound 23]
- Metabolic Stability H (% Rem.) [1]: 87/-/- % Rem.
- MIC90 (Mtb H37Rv strain): 2.5 µM (≈ 0.991 µg/mL)
- MIC90 (Mtb H37Rv strain; [2]): > 2 µM
- solubility (physchem; 25 °C, pH 7.4, aqueous buffer): < 5 µM
- IC50 (in vitro): > 100 µM

SMILES: CN(C)CCNC(=O)c1cccc(-c2ccc3nc(N)n(-c4ccc(C(F)(F)F)cc4)c(=O)c3c2)c1 [compound 13]
- Metabolic Stability H (% Rem.) [1]: 82 % Rem.
- Metabolic Stability M (% Rem.) [1]: 56 % Rem.
- Metabolic Stability R (% Rem.) [1]: 40 % Rem.
- MIC90 (Mtb H37Rv strain; [2]): 0.82 µM (≈ 0.406 µg/mL)
- solubility (physchem; 25 °C, pH 7.4, aqueous buffer): 168 µM (≈ 83.2 µg/mL)
- IC50 (in vitro): > 50 µM

SMILES: Nc1nc2ccc(-c3cncnc3)cc2c(=O)n1-c1ccc(C(F)(F)F)cc1 [compound 21]
- Metabolic Stability H (% Rem.) [1]: 94/-/- % Rem.
- MIC90 (Mtb H37Rv strain; [2]): 10 µM (≈ 3.83 µg/mL)
- solubility (physchem; 25 °C, pH 7.4, aqueous buffer): 40 µM (≈ 15.3 µg/mL)
- IC50 (in vitro): > 100 µM

SMILES: CN1CCN(C(=O)c2cccc(-c3ccc4nc(N)n(-c5ccc(C(F)(F)F)cc5)c(=O)c4c3)c2)CC1 [compound 19]
- Metabolic Stability H (% Rem.) [1]: 97 % Rem.
- Metabolic Stability M (% Rem.) [1]: 94 % Rem.
- Metabolic Stability R (% Rem.) [1]: 86 % Rem.
- MIC90 (Mtb H37Rv strain; [2]): 1.57 µM (≈ 0.797 µg/mL)
- solubility (physchem; 25 °C, pH 7.4, aqueous buffer): 51 µM (≈ 25.9 µg/mL)
- IC50 (in vitro): > 50 µM

SMILES: C[S+]([O-])c1cccc(-c2ccc3c(=O)n(-c4ccc(C(F)(F)F)cc4)c(N)nc3c2)c1 (stereo not drawn) [compound 31]
- Metabolic Stability H (% Rem.) [1]: 98 % Rem.
- Metabolic Stability M (% Rem.) [1]: 78 % Rem.
- Metabolic Stability R (% Rem.) [1]: 73 % Rem.
- MIC90 (Mtb H37Rv strain; [2]): 1.32 µM (≈ 0.585 µg/mL)
- solubility (physchem; 25 °C, pH 7.4, aqueous buffer): < 5 µM
- IC50 (in vitro): > 50 µM

SMILES: Nc1nc2ccc(-c3cccc(C(=O)O)c3)cc2c(=O)n1-c1ccc(C(F)(F)F)cc1 [compound 20]
- Metabolic Stability H (% Rem.) [1]: 99 % Rem.
- Metabolic Stability M (% Rem.) [1]: 98 % Rem.
- Metabolic Stability R (% Rem.) [1]: 97 % Rem.
- MIC90 (Mtb H37Rv strain; [2]): 112 µM (≈ 47.6 µg/mL)
- solubility (physchem; 25 °C, pH 7.4, aqueous buffer): 29 µM (≈ 12.3 µg/mL)
- IC50 (in vitro): > 100 µM

SMILES: Cc1ccc(S(C)(=O)=O)cc1-c1ccc2nc(N)n(-c3ccc(C(F)(F)F)cc3)c(=O)c2c1 [compound 7]
- Metabolic Stability H (% Rem.) [1]: 65 % Rem.
- Metabolic Stability M (% Rem.) [1]: 90 % Rem.
- Metabolic Stability R (% Rem.) [1]: 86 % Rem.
- MIC90 (Mtb H37Rv strain; [2]): 4.22 µM (≈ 2 µg/mL)
- solubility (physchem; 25 °C, pH 7.4, aqueous buffer): 53.3 µM (≈ 25.2 µg/mL)
- solubility (physchem): 53 µM (≈ 25.1 µg/mL)
- fold improvement in solubility (physchem; pH 7.4, relative to comparator analogue): 10 fold
- IC50 (in vitro): > 100 µM

SMILES: Nc1nc2ccc(-c3cccc(S(=O)(=O)C4CC4)c3)cc2c(=O)n1-c1ccc(C(F)(F)F)cc1 [compound 8]
- Metabolic Stability H (% Rem.) [1]: 85 % Rem.
- Metabolic Stability M (% Rem.) [1]: 97 % Rem.
- Metabolic Stability R (% Rem.) [1]: 98 % Rem.
- MIC90 (Mtb H37Rv strain; [2]): 2.35 µM (≈ 1.14 µg/mL)
- solubility (physchem; 25 °C, pH 7.4, aqueous buffer): 66 µM (≈ 32 µg/mL)
- IC50 (in vitro): 0.021 µM

SMILES: CN(C)c1cccc(-c2ccc3nc(N)n(-c4ccc(C(F)(F)F)cc4)c(=O)c3c2)c1 [compound 27]
- Metabolic Stability H (% Rem.) [1]: 37/-/- % Rem.
- MIC90 (Mtb H37Rv strain; [2]): 2.5 µM (≈ 1.06 µg/mL)
- solubility (physchem; 25 °C, pH 7.4, aqueous buffer): 20 µM (≈ 8.49 µg/mL)
- IC50 (in vitro): > 100 µM

SMILES: Nc1nc2ccc(-c3cccc(C(=O)N4CCOCC4)c3)cc2c(=O)n1-c1ccc(C(F)(F)F)cc1 [compound 16, 2-Amino-6-(3-(morpholine-4-carbonyl)phenyl)-3-(4-(trifluoromethyl)phenyl)quinazolin-4(3H)-one]
- Metabolic Stability H (% Rem.) [1]: 71 % Rem.
- Metabolic Stability M (% Rem.) [1]: 78 % Rem.
- Metabolic Stability R (% Rem.) [1]: 77 % Rem.
- MIC90 (Mtb H37Rv strain; [2]): 4.93 µM (≈ 2.44 µg/mL)
- solubility (physchem; 25 °C, pH 7.4, aqueous buffer): 56 µM (≈ 27.7 µg/mL)
- IC50 (in vitro): > 50 µM

SMILES: CNc1nc2ccc(-c3cccc(S(C)(=O)=O)c3)cc2c(=O)n1-c1ccc(C(F)(F)F)cc1 [compound 41, 2-(Methylamino)-6-(3-(methylsulfonyl)phenyl)-3-(4-(trifluoromethyl)phenyl)quinazolin-4(3H)-one]
- Metabolic Stability H (% Rem.) [1]: 98 % Rem.
- Metabolic Stability M (% Rem.) [1]: 100 % Rem.
- Metabolic Stability R (% Rem.) [1]: 100 % Rem.
- MIC90 (Mtb H37Rv strain): >125 µM
- MIC90 (Mtb H37Rv strain; [2]): > 125 µM
- solubility (physchem; 25 °C, pH 7.4, aqueous buffer): < 5 µM
- IC50 (in vitro): > 50 µM

SMILES: Nc1nc2ccc(-c3cccc(C(=O)NCCN4CCOCC4)c3)cc2c(=O)n1-c1ccc(C(F)(F)F)cc1 [compound 15, 3-(2-amino-4-oxo-3-(4-(trifluoromethyl)phenyl)-3,4-dihydroquinazolin-6-yl)-N-(2-morpholinoethyl)benzamide]
- Metabolic Stability H (% Rem.) [1]: 51 % Rem.
- Metabolic Stability M (% Rem.) [1]: 59 % Rem.
- Metabolic Stability R (% Rem.) [1]: 62 % Rem.
- MIC90 (Mtb H37Rv strain; [2]): 1.45 µM (≈ 0.779 µg/mL)
- solubility (physchem; 25 °C, pH 7.4, aqueous buffer): < 5 µM
- IC50 (in vitro): 8.77 µM

SMILES: Nc1nc2cc(-c3cccc(C(F)(F)F)c3)ccc2c(=O)n1-c1ccc(C(F)(F)F)cc1 [compound 32]
- Metabolic Stability H (% Rem.) [1]: 95 % Rem.
- Metabolic Stability M (% Rem.) [1]: 82 % Rem.
- Metabolic Stability R (% Rem.) [1]: 89 % Rem.
- MIC90 (Mtb H37Rv strain; [2]): 0.8 µM (≈ 0.359 µg/mL)
- solubility (physchem; 25 °C, pH 7.4, aqueous buffer): < 5 µM
- IC50 (in vitro): > 50 µM

SMILES: CNC(=O)c1cccc(-c2ccc3nc(N)n(-c4ccc(C(F)(F)F)cc4)c(=O)c3c2)c1 [compound 11]
- Metabolic Stability H (% Rem.) [1]: 98 % Rem.
- Metabolic Stability M (% Rem.) [1]: 100 % Rem.
- Metabolic Stability R (% Rem.) [1]: 100 % Rem.
- MIC90 (Mtb H37Rv strain; [2]): 0.78 µM (≈ 0.342 µg/mL)
- solubility (physchem; 25 °C, pH 7.4, aqueous buffer): < 5 µM
- IC50 (in vitro): 96.3 µM

SMILES: CNc1nc2ccc(-c3cccc([S+](C)[O-])c3)cc2c(=O)n1-c1ccc(C(F)(F)F)cc1 (stereo not drawn) [compound 40, 2-(Methylamino)-6-(3-(methylsulfinyl)phenyl)-3-(4-(trifluoromethyl)phenyl)quinazolin-4(3H)-one]
- Metabolic Stability H (% Rem.) [1]: 89 % Rem.
- Metabolic Stability M (% Rem.) [1]: 87 % Rem.
- Metabolic Stability R (% Rem.) [1]: 90 % Rem.
- MIC90 (Mtb H37Rv strain; [2]): 1.4 µM (≈ 0.64 µg/mL)
- solubility (physchem; 25 °C, pH 7.4, aqueous buffer): 64 µM (≈ 29.3 µg/mL)
- IC50 (in vitro): > 50 µM
